According to patent US20260248881A1, “PHARMACEUTICAL COMPOSITION COMPRISING FOXM1 INHIBITOR AND IMMUNE CHECKPOINT INHIBITOR FOR PREVENTING OR TREATING CANCER” (National Cancer Center, priority 2022, published 2026):

Columns and labels:
human H1299 or PC9 cells = test: Xenograft tumor model; format: in vivo, BALB/c nude mice
Experimental: Mice (n=6) were injected intraperitoneally with TST dissolved in DMSO at a dose of 17 mg/kg every 2 days before euthanasia and sacrifice. Tumor volume and body weight of the mice were measured every other day. […] Two days after the final TST injection, all mice were sacrificed, and tumor tissues were collected for immunohistochemical (IHC) staining of FOXM1 and PD-L1. The tissues were fixed in 10% neutralized formaldehyde and embedded in paraffin blocks. Tissue microarray (TMA) slides were made with a 4 mm diameter per sample and sectioned at 4 μm thickness to perform IHC with anti-FOXM1 (#20459S) or anti-PD-L1 (#13684S) (Cell Signaling Technology) antibodies. Autostainer Link48 (Dako, Agilent Technologies, Santa Clara, CA, USA) was used for analysis.
(§1) IHC staining was performed using anti-rabbit-HRP antibodies (K4003, EnVision+ HRP Labelled Polymer Anti-Rabbit, Dako, Agilent Technologies, Carpinteria, CA, USA) and 3,3′-diaminobenzidine (DAB) (K3468, DAB+ Chromogen, Dako, Agilent Technologies, Santa Clara, CA, USA) as substrates, and the sections were counterstained with hematoxylin (K8008, EnVision FLEX Hematoxylin, Dako, Agilent Technologies Singapore, Singapore). To analyze the in vivo toxicity of the tested drugs, four xenograft mice from each group were used for serum biochemical analysis (Table 2). On day 9, serum samples were collected from the mice in the control and TST-treated groups. In addition, the vital organs (liver, spleen, and kidney) were collected form mice, sectioned, and stained with H&E to monitor histopathological changes.
To investigate the effect of TST, which is a FOXM1 inhibitor, on tumor growth and PD-L1 expression in vivo, human H1299 or PC9 cells (5×10^6) were subcutaneously implanted into BALB/c nude mice (n=6 per group). When the average size of the xenografted tumor masses reached approximately 170 mm^3, TST was injected intraperitoneally into the mice at a dose of 17 mg/kg four times every 2 days (FIG. 7a). […] 2 days after the final TST treatment, the mice were sacrificed. […]

CD274 promoter = test: Dual-luciferase assay with CD274 promoter-luciferase construct; format: cell-based, human; details: TST in the presence of IFNγ
From the text: The pGL3 plasmid containing a 2 kb promoter of CD274 (#107003; Addgene, Watertown, MA, USA) was kindly provided by Julian Downward lab (Coelho M A, de Carne Trecesson S, Rana S, Zecchin D, Moore C, Molina-Arcas M, East P, Spencer-Dene B, Nye E, Barnouin K, Snijders A P, Lai W S, Blackshear P J, Downward J, Immunity 2017, 47, 1083.). H1299 and PC9 cells were co-transfected with a pGL3 2 kb promoter. Cells containing CD274 or control pGL3-basic plasmid and pGL4.70 hRluc Renilla luciferase vector (Promega, Madison, WI, USA) were transfected with siFOXM1 or treated with TST in the presence of interferon-gamma (IFNγ). Cells were harvested 48 hours after transfection, and a dual luciferase assay was performed to the according manufacturer's protocol (#E1910; Promega). At least four independent biological replicates were examined to obtain reliable results.

CD274 (PD-L1) = test: Semi-quantitative PCR of PD-L1 (CD274) transcript in H1299 and PC9 cells; format: cell-based, human; details: TST in the presence of IFN-γ
Experimental: H1299 and PC9 cells purchased from ATCC (Manassas, VA, USA) were cultured in RPMI-1640 medium (#10-040-CV; Corning, New York, NY, USA) supplemented with 10% […] (#35-010-CV; Corning) and penicillin-streptomycin antibiotic cocktail (#15240062; Thermo Fisher Scientific, Waltham, MA, USA) at 37° C. and 5% CO2.
H1299 and PC9 LUAD cells were transfected with 5 nM negative control (NC) or FOXM1 siRNA (siFOXM1) (QIAGEN, Hilden, Germany) using Lipofectamine RNAiMAX (#13778150; Thermo Fisher Scientific). Human FOXM1 isoform b (pFLAG-FOXM1)-expressing plasmid or empty vector (pFLAG-CMV; mock) was transfected into H1299 and PC9 cells using Lipofectamine 2000 reagent (#11668019; Thermo Fisher Scientific) according to the manufacturer's instructions.
Total RNA was extracted and purified using the RNeasy kit (#74004; QIAGEN) according to the manufacturer's protocol. Reverse transcription of mRNA was performed using a PrimeScript 1st Strand CDNA Synthesis Kit (#6110A; TaKaRa Bio, Otsu, Japan). Quantitative PCR was performed using primers specific for the CD274 and FOXM1 genes designed using Primer 3 software. A β-actin gene was used as an internal control group to normalize target gene expression.

[1] = In vivo toxicity in xenograft mice (serum biochemical analysis, H&E, TUNEL of normal tissues)
Experimental: as §1

[2] = cited from earlier work

**Q.** What does the source list for thiostrepton [TST]?
**A.** FOXM1 and PD-L1 expression in tumors (immunohistochemical analysis) (human H1299 or PC9 cells; 2 days after final TST treatment, vs control mice): significantly downregulated; tumor volume (human H1299 or PC9 cells; TST 17 mg/kg intraperitoneally four times every 2 days, vs control group): significant decrease in tumor volume; body weight (human H1299 or PC9 cells; after 9 days, TST vs control): no difference in body weight; decrease in relative luciferase activity (CD274 promoter activity) (CD274 promoter; H1299): 53%; decrease in relative luciferase activity (CD274 promoter activity) (CD274 promoter; PC9): 66%; PD-L1 mRNA expression (CD274 (PD-L1)): concentration-dependent decrease; histological changes in vital organs (H&E staining) ([1]; liver, spleen, kidney): no significant histological changes; A/G ratio ([1]; serum, day 9, n = 4): 1.99 ± 0.13; ALP ([1]; serum, day 9, n = 4): 91.50 ± 15.04 U/L; ALT ([1]; serum, day 9, n = 4): 31.25 ± 4.21 U/L; AST ([1]; serum, day 9, n = 4): 82.75 ± 8.58 U/L; Alb ([1]; serum, day 9, n = 4): 3.28 ± 0.08 g/dL; BUN ([1]; serum, day 9, n = 4): 19.70 ± 1.11 mg/dL; Crea ([1]; serum, day 9, n = 4): 0.00 ± 0.00 mg/dL; Glo ([1]; serum, day 9, n = 4): 1.65 ± 0.09 g/dL; Glu ([1]; serum, day 9, n = 4): 321.00 ± 58.73 mg/dL; T-Bill ([1]; serum, day 9, n = 4): 0.10 ± 0.00 mg/dL; T-chol ([1]; serum, day 9, n = 4): 107.50 ± 3.20 mg/dL; TG ([1]; serum, day 9, n = 4): 118.00 ± 14.88 mg/dL; TP ([1]; serum, day 9, n = 4): 4.93 ± 0.08 g/dL; levels of blood biomarkers ([1]; vs DMSO control group): not significantly changed; apoptotic cell death in normal tissues (TUNEL assay) ([1]; vs DMSO control tissues): no effect on apoptotic cell death in normal tissues; solubility in water [2]: low solubility in water
